According to paper PMC3681500, “Development of an orally-administrative MELK-targeting inhibitor that suppresses the growth of various types of human cancer” (Oncotarget, 2012):

Target: MELK (maternal embryonic leucine zipper kinase) (Homo sapiens, UniProt Q14680)
Test: IMAP kinase assay, high-throughput screen followed by dose-response
Assay type: biochemical

Sequence of MELK (maternal embryonic leucine zipper kinase) (Q14680 whole entry): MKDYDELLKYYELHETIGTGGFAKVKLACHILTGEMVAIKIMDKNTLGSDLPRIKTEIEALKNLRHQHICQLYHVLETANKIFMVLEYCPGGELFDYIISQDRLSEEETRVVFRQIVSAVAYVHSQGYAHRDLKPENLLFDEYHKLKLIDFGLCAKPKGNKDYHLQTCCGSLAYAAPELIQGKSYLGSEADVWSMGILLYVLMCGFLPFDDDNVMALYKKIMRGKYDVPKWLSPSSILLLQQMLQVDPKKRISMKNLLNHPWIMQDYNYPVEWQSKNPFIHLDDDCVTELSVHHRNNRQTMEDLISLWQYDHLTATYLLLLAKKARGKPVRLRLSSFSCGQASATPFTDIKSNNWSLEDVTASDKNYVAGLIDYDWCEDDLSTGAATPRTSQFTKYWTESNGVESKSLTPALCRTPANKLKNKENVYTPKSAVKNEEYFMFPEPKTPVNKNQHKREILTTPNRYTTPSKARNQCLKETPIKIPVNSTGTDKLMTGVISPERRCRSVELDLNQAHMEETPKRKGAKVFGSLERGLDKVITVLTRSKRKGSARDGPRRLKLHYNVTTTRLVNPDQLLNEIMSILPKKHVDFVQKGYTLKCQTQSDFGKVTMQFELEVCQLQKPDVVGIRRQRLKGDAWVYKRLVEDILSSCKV

In the case of `CCOC(=O)c1ccc2ncc(C(=O)OCC)c(Nc3ccc(NC(C)=O)cc3)c2c1` [compound 1, diethyl 4-(4-acetamidophenylamino) quinoline-3,6-dicarboxylate], the IC50 is reported as 4.8 µM.
